In ChEMBL document CHEMBL3507680, “University of Dundee, Gates Library screen for HepG2 cell viability”:

Assay: Human HepG2 cell viability assay in 384 well format
Assay type: toxicity, cell-based
Set-up: dose 125 nL, time 70.5 hour; cytotoxicity at 70.5 h: concentration not given beside the values
Conditions: HepG2 cells, read-out: Inhibition

Row | Structure (SMILES) | cytotoxicity at 70.5 h [%]
1 | N#Cc1cccnc1N1CCN(C(=O)c2cccs2)CC1 | -3
2 | N#Cc1cn(CCCN2CCc3ccccc3C2)c(=O)[nH]c1=O | -5.98
3 | CS(=O)(=O)Nc1cccc(CNC(=O)CCC(=O)c2cccs2)c1 | -3.24
4 | Cc1cccnc1NC(=O)C1CCCN(c2cccc(C(F)(F)F)n2)C1 (centres undefined) | -0.942
5 | O=C(NC1CC1)C1CCN(c2cccc(C(F)(F)F)n2)CC1 | -1.37
6 | CC(=O)NC1CCCN(Cc2ccc(OCc3ccccn3)cc2)C1 (centres undefined) | -6.3
7 | O=C(CN1CCS(=O)(=O)CC1)NC1CCCOc2ccccc21 (centres undefined) | -3.91
8 | CC(C(=O)N1CCC(Cc2ccc(F)cc2)CC1)n1ccnc1 (centres undefined) | 20.4
9 | O=C1NCC(C(=O)N(Cc2cccc(Br)c2)C2CC2)N1 (centres undefined) | 26.3
10 | O=C(CCn1ccc2ccccc21)N1CCC(Nc2cccnn2)CC1 | -3.47
11 | CCOCC(=O)N(Cc1ccccn1)Cc1ccccc1C | -4.52
12 | CS(=O)(=O)Cc1ccc(Cl)cc1NCc1ccccc1F | 27.6
13 | Cc1ccccc1CN(Cc1ccccn1)C(=O)CNS(C)(=O)=O | 25.2
14 | COC(=O)c1ccc(F)c(Cn2nc(C)cc2C)c1 | 4.73
15 | O=c1[nH]nc(SCC2CCCCO2)n1C1CC1 (centres undefined) | 28.8
16 | CSCC(=O)N(Cc1ccccn1)Cc1ccccc1C | -4.08
17 | Clc1cncc(NCc2cccc(OCCN3CCOCC3)c2)n1 | -8.21
18 | CC(CS(C)(=O)=O)N(C(=O)c1ccc(Cl)s1)C1CC1 (centres undefined) | -9.46
19 | CC(c1ccco1)N(C(=O)NCc1ccon1)C1CC1 (centres undefined) | 56.7
20 | Cc1noc(C)c1CNC(=O)N(C1CC1)C(C)c1ccco1 (centres undefined) | -3.98
21 | Cc1cc(CNc2ccc(CC(=O)N(C)c3ccccc3)cc2)no1 | 0.0494
22 | CC(C)c1noc(C(C)S(=O)(=O)Cc2nc(C3CC3)no2)n1 (centres undefined) | -4.5
23 | O=C(NCCCN1CCOCC1)c1ccnc(OCc2ccccc2)c1 | -1.25
24 | Cn1ccc2c(C(=O)NCCCN3CCCC3)cccc21 | -3.04

Row | Structure (SMILES) | cytotoxicity at 70.5 h [%]
25 | COc1cc(C2(C(=O)NCC(=O)NC3CC3)CC2)ccc1C | -5.44
26 | COc1cc(C2(C(=O)NC3CCC4(CC3)OCCO4)CC2)ccc1C | -4.1
27 | OC(CNCCn1cccn1)COc1ccc(Br)cc1 (centres undefined) | -5.72
28 | CC(C)n1cc(CN2CCCN(C(=O)c3cccnc3O)CC2)cn1 | -2.94
29 | CC(C)n1cc(CN2CCCN(C(=O)c3cccn3C)CC2)cn1 | -2.47
30 | CCc1ccc(C(=O)N2CCCC2c2c(C)nn(C)c2OC)o1 (centres undefined) | -6.13
31 | COc1c(C2CCCN2C(=O)c2cccn2C)c(C)nn1C (centres undefined) | 13.8
32 | COc1c(C2CCCN2C(=O)c2ccnn2C)c(C)nn1C (centres undefined) | -4.02
33 | CCn1ccnc1CN1CCN(Cc2cccnc2)CC1C (centres undefined) | 7.86
34 | CNc1cc(N2CCCC2CNCc2ccc(C)o2)ncn1 (centres undefined) | 5.47
35 | CCn1ccnc1CN1CCN(CCc2ccncc2)CC1C (centres undefined) | 7.35
36 | O=C(C1CC1)N1CCCC1c1nnc2n1CCCCC2 (centres undefined) | 0.772
37 | NC(=O)c1ccc(CN2CCC(N3CCCC3)CC2)cc1 | -2.01
38 | NC(=O)c1cccc(CN2CCOC(Cn3cccn3)C2)c1 (centres undefined) | 8.52
39 | CS(=O)(=O)CCn1ccc(NC(=O)CCc2cccc(F)c2)n1 | -3.41
40 | CNc1cc(N2CCCC2CNCc2cccnc2C)ncn1 (centres undefined) | 4.98
41 | Cc1cc(F)ccc1CCNC(=O)NCC(C)N1CCOCC1 (centres undefined) | 3.68
42 | CC(C)C(NC(=O)NCC1CC1)c1nnc2n1CCC2 (centres undefined) | 3.11
43 | CCc1cc(CNC(=O)N2CCN(c3nc(C)c(C)s3)CC2)on1 | -3.25
44 | CC(C)COCCCNC(=O)c1cccnc1N1CCOCC1 | 4.2
45 | Cc1nc(C)n(C2CCCN(C(=O)CCn3cncn3)C2)n1 (centres undefined) | -0.0645
46 | Cc1nc(C)n(C2CCCN(C(=O)CCc3cscn3)C2)n1 (centres undefined) | 37
47 | Cc1cc(C)n(CC2CN(Cc3ccc4c(c3)OCCO4)CCO2)n1 (centres undefined) | -3.91
48 | CCC(CNC1CCN(C(=O)N(C)C)CC1)Oc1ccccc1C (centres undefined) | 27.1

Row | Structure (SMILES) | cytotoxicity at 70.5 h [%]
49 | CCC(CNC1CCN(C(C)=O)CC1)Oc1ccccc1Cl (centres undefined) | 5.02
50 | Cc1cnn(CCNCC(=O)NC2(C#N)CCCC2)c1 | -0.423
51 | Cc1sc2nc(C(F)(F)F)nc(N3CCN(C)CC3)c2c1C | -4.17
52 | CCCc1nc(C)c(C(=O)NC2CCN(c3ncccn3)CC2)s1 | -9.16
53 | N#CC1(NC(=O)COC(=O)Cn2cccn2)CCCC1 | -7.86
54 | OC1CCN(c2ccccc2NCc2nc(-c3cccs3)no2)CC1 | -10.7
55 | OC1CCN(c2ccccc2NCc2nc(-c3ccoc3)no2)CC1 | 36.2
56 | CC(NCc1ccncc1)c1cc2c(cc1Br)OCCO2 (centres undefined) | -4.83
57 | CC(Cn1cccn1)NCC(=O)NC1(C#N)CCCCC1 (centres undefined) | 21.3
58 | CCOC(C)C(=O)N(C)C1CCN(c2ccc(OC)cc2)CC1 (centres undefined) | -4.16
59 | O=C(NS(=O)(=O)Cc1ccc(F)cc1)C1CCOc2ccccc21 (centres undefined) | -9.19
60 | Cc1ncc2c(n1)CN(Cc1nc3c(F)cccc3[nH]1)CC2 | -2.01
61 | Fc1cccc2[nH]c(CN3CCc4cncnc4C3)nc12 | -7.7
62 | CSC(C)C(=O)N(C)C1CCN(c2ccc(Cl)cc2)CC1 (centres undefined) | 2.45
63 | COc1ccc(N2CCC(N(C)C(=O)C(C)SC)CC2)cc1 (centres undefined) | -6.26
64 | CCC(CNC(=O)NC1CCN(C)CC1)Oc1ccccc1Cl (centres undefined) | 30.5
65 | O=C(NCc1csc2ccccc12)NCC1(O)CCSC1 (centres undefined) | -2.26
66 | FC(F)Sc1ccc(NCc2nnc(C3CC3)o2)cc1 | -4.17
67 | COc1ccnc(NC(=O)c2cscn2)c1 | -10.4
68 | CN(Cc1ccc2c(c1)OCO2)Cc1nc(Cc2ccccc2)no1 | -5.91
69 | CCOC(C)c1noc(CN2CCN(c3ccncc3)CC2)n1 (centres undefined) | -6.31
70 | CCOC(C)c1noc(CN2CCCNCC2)n1 (centres undefined) | -5.58
71 | CCOC(C)c1noc(CN2CCN(Cc3cccnc3)CC2)n1 (centres undefined) | 34.3
72 | CCOC(C)c1noc(CN2CCN(Cc3cccc(F)c3)CC2)n1 (centres undefined) | -7.41

Row | Structure (SMILES) | cytotoxicity at 70.5 h [%]
73 | CCC(=O)N1CSCC1C(=O)N(C)CCc1ccccc1 (centres undefined) | 7.14
74 | O=C(CCNS(=O)(=O)c1cccnc1)N1CCCCC1 | 15.8
75 | O=C(c1ccc(-n2ccnc2)nn1)N1CCCC1CCc1ccccc1 (centres undefined) | -19.5
76 | CCc1nc(CN(C)C(=O)NC(C)c2cccc(NC(C)=O)c2)cs1 (centres undefined) | 12.9
77 | COc1ccc(Nc2cc(C)nc(C)n2)cc1N1CCCC1=O | -7.1
78 | CCc1nc(CN(C)C(=O)NCc2cccc(NC(C)=O)c2)cs1 | -10.2
79 | c1csc(-c2noc(CN3CCc4c(ncn4C4CC4)C3)n2)c1 | -14.5
80 | CCCC(C#N)NC(=O)COC1CCCCC1 (centres undefined) | 6.33
81 | CN(CCc1ccncc1)C(=O)C1CSCN1C(=O)C(C)(C)C (centres undefined) | -8.71
82 | c1ccc(-c2noc(CN3CCc4c(ncn4C4CC4)C3)n2)nc1 | -6.92
83 | Cc1ccc(OCC(=O)Nc2cnccc2SCCCO)cc1C | 9.63
84 | COc1ccc(Nc2ccc(C#N)cn2)cc1N1CCCC1=O | 5.76
85 | CC(C)C1CN(S(=O)(=O)c2cccc(C#N)c2)CCS1 (centres undefined) | 8.4
86 | Cc1ccc(-c2nc(CN3CCn4c(nnc4C4CC4)C3)no2)cc1 | 10.2
87 | CN1CCC(NC(=O)CCCc2cc(Cl)sc2Cl)C1=O (centres undefined) | -9.29
88 | Cc1ccsc1CNC(=O)c1ccc2c(c1)CCC(=O)N2 | 16.1
89 | O=C1CCc2cc(C(=O)NCc3ccc(Cl)s3)ccc2N1 | -3.83
90 | Cn1ccc(C(=O)NCCOc2ccc3c(c2)OCO3)cc1=O | -6.82
91 | CCOc1ccc(NC(C)C(=O)Nc2cc(C)no2)cc1 (centres undefined) | -5.28
92 | Cc1ccc(S(=O)(=O)CCC(=O)NCc2nnc3n2CCC3)cc1 | -3.09
93 | CCOc1ccc(CN(C)C(C)C(=O)Nc2cc(C)no2)cc1 (centres undefined) | -5.64
94 | COc1ccc(OCCN(C)c2cc(C)nc(N)n2)cc1 | -6.24
95 | NC(=O)CN(Cc1ccc(Br)cc1)C(=O)c1ccncc1 | -2.62
96 | NC(=O)CN(Cc1ccc(Br)cc1)C(=O)c1cnccn1 | -5.94

Row | Structure (SMILES) | cytotoxicity at 70.5 h [%]
97 | NC(=O)CN(Cc1ccc(Br)cc1)C(=O)c1ccccn1 | -4.46
98 | CC(C)c1nn(C)c(N(C)C)c1CNC1CCCCNC1=O (centres undefined) | -4.04
99 | Cc1nn(C)c(N2CCOCC2)c1CNC1CCCCNC1=O (centres undefined) | -5.43
100 | Cc1nn(C)c(Oc2ccccc2)c1CNC1CCCCNC1=O (centres undefined) | -6.4
101 | Cn1cc(C2CCCN2C(=O)CCn2c(=O)oc3ccccc32)cn1 (centres undefined) | -2.42
102 | Cc1cc(N(Cc2ccon2)S(C)(=O)=O)ccc1Br | 17.3
103 | O=C(c1cc(-n2cccn2)ccn1)N(CC1CCC1)CC(F)(F)F | -3.45
104 | Cn1ccc(C(=O)NCCOc2ccc3c(c2)CCC3)cc1=O | -3.77
105 | Cc1cc(CNC2(c3ccccc3)CCCCC2)no1 | -4.77
106 | O=C(c1cc(-n2cccn2)ccn1)N(CC(F)(F)F)C1CCCC1 | -2.14
107 | CC(O)CN1CCC(CN(C)CC(=O)NC(C)C)CC1 (centres undefined) | -1.64
108 | CC(O)CN1CCC(CN(C)CCC(=O)NC2CCCCC2)CC1 (centres undefined) | 14.6
109 | Clc1ccc(CN2CCc3c(ncn3C3CC3)C2)c2ncccc12 | -2.64
110 | Cc1cnn(CCNCc2c(C)nn(CCO)c2C)c1 | 2.83
111 | CC(C)Cc1ncc(CNc2cnccc2CO)s1 | -1.94
112 | Cc1cc(C)n(Cc2cccc(C(=O)N(CCC#N)CCC#N)c2)n1 | -0.535
113 | COC(=O)CCCN(C)C(=O)c1cc(F)cc2[nH]cnc12 | 23.5
114 | COC(=O)NC1(C(=O)NCc2ccc(-c3ccn[nH]3)cc2)CCCC1 | -0.909
115 | CCNC(=O)NC1CN(CC(=O)NCc2ccccc2C)C[C@@H]1OC (some centres undefined) | 1.44
116 | COc1ccc(S(=O)(=O)N2CC(CC(=O)O)c3ccccc32)cc1 (centres undefined) | -0.927
117 | O=C(c1[nH]nc2c1CCCC2)N1CCC(OCCN2CCCCC2)C1 (centres undefined) | -2.83
118 | O=C(CN1CCC[C@H]1C(=O)O)NCCOc1cccc(Cl)c1 | -1.34
119 | CCOC(=O)c1ccccc1NC(=O)CN(C)Cc1ccccc1Cl | 3.31
